One data set concerns the target Carbonic anhydrase 1 (Homo sapiens, UniProt P00915). Briefly: Inhibition of human CA-I incubated for 15 mins by stopped-flow CO2 hydration assay.
For the next data set, the target named is Carbonic anhydrase 7 (Homo sapiens, UniProt P43166). The experiment in a line: Inhibition of human CA-VII incubated for 15 mins by stopped-flow CO2 hydration assay.
The target in another data set is Carbonic anhydrase 9 (Homo sapiens, UniProt Q16790).
Data set [1] can be described thus: Antiproliferative activity against human PBMC cells assessed as decrease in cell viability at 10 uM incubated for 48 hrs by Cell Titer Glo assay. Format: toxicity, cell-based.
Data set [2] in a line: Induction of apoptosis in human BZB-resistant NCI-H929 cells assessed as viable cells at 2.5 uM incubated for 48 hrs by Annexin V/7-AAD staining based FACS analysis (reference value: 86.7 %). The settings on record: BZB-resistant […] cell, read-out: Activity. The class given is functional. Background: In flow cytometry, cells or beads pass a laser one at a time.
A short description of data set [3]: Induction of apoptosis in human BZB-resistant NCI-H929 cells assessed as viable cells at 5 uM incubated for 48 hrs by Annexin V/7-AAD staining based FACS analysis (reference value: 86.7 %). Format: functional. The settings on record: BZB-resistant […] cell, read-out: Activity.
Data set [4] is described as follows: Induction of apoptosis in human BZB-resistant NCI-H929 cells assessed as viable cells at 10 uM incubated for 48 hrs by Annexin V/7-AAD staining based FACS analysis (reference value: 86.7 %). The class given is functional. The settings on record: BZB-resistant […] cell, read-out: Activity.
The target of data set [5] is Carbonic anhydrase 5A, mitochondrial (Homo sapiens, UniProt P35218). Briefly: Inhibition of human CA-VA incubated for 15 mins by stopped-flow CO2 hydration assay.
Carbonic anhydrase 5A, mitochondrial, sequence (P35218 whole entry): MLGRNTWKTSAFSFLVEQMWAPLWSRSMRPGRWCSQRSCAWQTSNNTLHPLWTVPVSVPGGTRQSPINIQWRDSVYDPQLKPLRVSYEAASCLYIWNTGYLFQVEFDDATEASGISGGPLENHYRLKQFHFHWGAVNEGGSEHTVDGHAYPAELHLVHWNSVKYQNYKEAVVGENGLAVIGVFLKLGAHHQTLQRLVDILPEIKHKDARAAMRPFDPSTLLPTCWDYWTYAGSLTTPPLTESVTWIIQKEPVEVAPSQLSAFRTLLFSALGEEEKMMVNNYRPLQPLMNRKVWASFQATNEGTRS
For data set [6], the species on record is Homo sapiens. The experiment in a line: Inhibition of […] human CA-II H94C mutant using p-nitrophenylacetate as substrate at 500 uM preincubated for 10 mins followed by substrate addition by absorbance based assay relative to control.
Data set [7] is filed under the species Homo sapiens. Briefly: Inhibition of […] human CA-II H94D mutant using p-nitrophenylacetate as substrate at 500 uM preincubated for 10 mins followed by substrate addition by absorbance based assay relative to control.
Data set [8] deals with T1, Carbonic anhydrase 2 (Homo sapiens, UniProt P00918). The experiment in a line: Inhibition of wild-type human CA-II using p-nitrophenylacetate as substrate preincubated for 15 mins followed by substrate addition measured for 20 mins by absorbance based assay.
Data set [9] in a line: Inhibition of […] human CA-II L198G mutant using p-nitrophenylacetate as substrate preincubated for 15 mins followed by substrate addition measured for 20 mins by absorbance based assay.
In data set [10] the target is T1, Carbonic anhydrase 2. The experiment in a line: Inhibition of human CA-II incubated for 15 mins by stopped-flow CO2 hydration assay.
Another data set addresses Carbonic anhydrase 12 (Homo sapiens, UniProt O43570). The experiment in a line: Inhibition of human CA-XII incubated for 15 mins by stopped-flow CO2 hydration assay.
Data set [11] addresses T1, Carbonic anhydrase 2. Briefly: Inhibition of wild-type human CA-II using p-nitrophenylacetate as substrate at 500 uM preincubated for 10 mins followed by substrate addition by absorbance based assay relative to control.

Consider 27 molecules from ChEMBL document CHEMBL6134845, “O-derivatization of natural tropolone and β-thujaplicin leading to effective inhibitors of human carbonic anhydrases IX and XII” (Eur J Med Chem, 2025).

Some results are limits rather than exact numbers.

Carbonic anhydrase 1, sequence (P00915 whole entry): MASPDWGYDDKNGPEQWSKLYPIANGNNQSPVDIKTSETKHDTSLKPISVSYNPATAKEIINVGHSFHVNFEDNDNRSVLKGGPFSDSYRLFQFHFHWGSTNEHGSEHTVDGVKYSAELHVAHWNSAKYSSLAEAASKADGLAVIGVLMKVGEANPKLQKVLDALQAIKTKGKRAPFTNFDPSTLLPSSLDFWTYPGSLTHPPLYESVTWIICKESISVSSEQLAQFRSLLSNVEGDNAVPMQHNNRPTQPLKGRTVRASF
Carbonic anhydrase 7, sequence (P43166 whole entry): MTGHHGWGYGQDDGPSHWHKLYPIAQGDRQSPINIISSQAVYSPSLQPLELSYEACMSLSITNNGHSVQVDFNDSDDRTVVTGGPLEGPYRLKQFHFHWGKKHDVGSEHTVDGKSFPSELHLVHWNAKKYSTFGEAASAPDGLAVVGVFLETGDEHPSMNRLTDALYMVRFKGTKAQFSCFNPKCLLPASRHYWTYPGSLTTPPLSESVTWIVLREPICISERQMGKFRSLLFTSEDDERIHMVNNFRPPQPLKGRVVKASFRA
Carbonic anhydrase 12, sequence (O43570 whole entry): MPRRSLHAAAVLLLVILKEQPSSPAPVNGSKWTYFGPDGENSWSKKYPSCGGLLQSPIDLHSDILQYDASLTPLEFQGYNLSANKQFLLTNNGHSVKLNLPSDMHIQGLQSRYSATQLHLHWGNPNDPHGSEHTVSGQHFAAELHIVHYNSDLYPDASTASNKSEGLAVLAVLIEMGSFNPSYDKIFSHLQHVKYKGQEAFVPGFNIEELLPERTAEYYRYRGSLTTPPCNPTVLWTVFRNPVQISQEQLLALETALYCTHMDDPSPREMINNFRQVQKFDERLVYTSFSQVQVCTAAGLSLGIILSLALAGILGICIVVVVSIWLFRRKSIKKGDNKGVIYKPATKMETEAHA
Description for Carbonic anhydrase 9: Inhibition of human CA-IX incubated for 15 mins by stopped-flow CO2 hydration assay

What is called Ki is the dissociation constant of the complex between target and ligand, obtained from inhibition or displacement. A low value points to a stronger hold on the target. On to `Cc1ccc(S(=O)(=O)Oc2cc(C(C)C)cccc2=O)cc1`, for which the Ki at Carbonic anhydrase 1 is greater than 100 µM; at Carbonic anhydrase 7, 9.33 µM; on Carbonic anhydrase 9, 0.42 µM. Further, the Activity result in data set [1] is on record as “Non-toxic”. Further, the viability at 2.5 µM in data set [2] worked out at 78.1%. The viability at 5 µM in data set [3] was 74.5%. Also, in data set [4], the viability at 10 µM turned out to be 36.7%.
Turning to `Cc1ccc(S(=O)(=O)Oc2cccccc2=O)cc1`, the Ki on Carbonic anhydrase 1 was 94.2 µM; in data set [5], greater than 100 µM; at Carbonic anhydrase 7 it was greater than 100 µM; at Carbonic anhydrase 9 it was greater than 100 µM.
For `Cc1ccc(S(=O)(=O)Oc2cccc(C(C)C)cc2=O)cc1`, the Ki is greater than 100 µM on Carbonic anhydrase 1, 4.45 µM in data set [5], 5.27 µM at Carbonic anhydrase 7 and 0.4 µM on Carbonic anhydrase 9.
For `CC(C)c1cccc(OCCCCCOc2cccc(C(C)C)cc2=O)c(=O)c1`, in that order: greater than 100 µM, 31.6 µM, 7.1 µM and 1.33 µM.
Regarding `O=c1cccccc1OCc1ccccc1[N+](=O)[O-]`, the Ki at Carbonic anhydrase 1 is 8.01 µM; in data set [5] it was greater than 100 µM; at Carbonic anhydrase 7 it was greater than 100 µM; on Carbonic anhydrase 9, greater than 100 µM.
With `O=c1cccccc1OCc1cccc([N+](=O)[O-])c1`, the Ki on Carbonic anhydrase 1 was greater than 100 µM; at Carbonic anhydrase 7, greater than 100 µM; on Carbonic anhydrase 9 it was 34.5 µM.
Take `CC(C)c1cccc(=O)c(OCc2ccccc2[N+](=O)[O-])c1`: the Ki is greater than 100 µM on Carbonic anhydrase 1, 8.96 µM in data set [5], 5.41 µM on Carbonic anhydrase 7 and 1.41 µM on Carbonic anhydrase 9.
In the case of `CC(C)c1cccc(OCc2ccccc2C(F)(F)F)c(=O)c1`, the Ki (in data set [5]; on Carbonic anhydrase 7; on Carbonic anhydrase 9) was greater than 100 µM each time.
For the molecule `O=c1cccccc1OCc1ccc(Br)cc1`, the figures for the Ki (on Carbonic anhydrase 1; in [5]; on Carbonic anhydrase 9) were greater than 100 µM, greater than 100 µM and 37.7 µM, respectively.
Regarding `CC(C)c1cccc(=O)c(OCc2ccccc2C(F)(F)F)c1`, the values for the Ki (in data set [5]; at Carbonic anhydrase 7) were 83.5 µM and greater than 100 µM, respectively.
On to `O=c1cccccc1OCCCCCBr`, for which the Ki on Carbonic anhydrase 1 is greater than 100 µM; at Carbonic anhydrase 7, 1.52 µM; on Carbonic anhydrase 9, 0.54 µM.
On to `CC(C)c1cccc(OCc2ccc(Br)cc2)c(=O)c1`, for which the Ki on Carbonic anhydrase 1 is greater than 100 µM; in data set [5], 7.95 µM; at Carbonic anhydrase 7, 0.96 µM; at Carbonic anhydrase 9, 0.26 µM.
Regarding `CC(C)c1cccc(OCc2ccccc2[N+](=O)[O-])c(=O)c1`, the Ki in data set [5] came out at 21.7 µM; at Carbonic anhydrase 7, 6.18 µM; at Carbonic anhydrase 9, 0.94 µM.
In the case of `C#CCOc1cccccc1=O`, the Ki is 0.05 µM on Carbonic anhydrase 1 and greater than 100 µM in [5].
For `O=C(Oc1cccccc1=O)C12CC3CC(CC(C3)C1)C2`, the Ki turned out to be 85.6 µM in [5] and 43.5 µM at Carbonic anhydrase 9.
A word on the inhibition: it is the change of the read-out against control, counted positive when it falls. A higher inhibition goes with a strong effect. Regarding `O=c1cccccc1O` [TROPOLONE], the inhibition in the data set listed under Homo sapiens [6] is 0%; in the data set listed under Homo sapiens [7], 47%. For the same molecule, the Ki at Carbonic anhydrase 2 [8] is 1350 µM; in [9], 245 µM; on Carbonic anhydrase 1, greater than 100 µM; at Carbonic anhydrase 2 [10], greater than 100 µM; in data set [5], greater than 100 µM; at Carbonic anhydrase 7, greater than 100 µM. Also, the Ki on Carbonic anhydrase 9 and at Carbonic anhydrase 12 was greater than 100 µM each time.
For `O=C(Oc1cccccc1=O)c1ccc([N+](=O)[O-])cc1`, the Ki on Carbonic anhydrase 1 was 84.4 µM; at Carbonic anhydrase 7, greater than 100 µM; at Carbonic anhydrase 9, greater than 100 µM.
As to `CC(C)c1cccc(OCc2cccc3ccccc23)c(=O)c1`, the Ki at Carbonic anhydrase 1 is greater than 100 µM; in data set [5] it was 89.4 µM; at Carbonic anhydrase 7 it was 3.95 µM; on Carbonic anhydrase 9, 0.53 µM.
On to `O=c1cccccc1OCc1cccc2ccccc12`, for which the figures for the Ki on Carbonic anhydrase 1, at Carbonic anhydrase 7 and on Carbonic anhydrase 9 were greater than 100 µM, 2.82 µM and 2.28 µM, respectively.
As for `N#Cc1ccc(COc2cccccc2=O)cc1`, the Ki on Carbonic anhydrase 1 was 8.31 µM; in data set [5], greater than 100 µM; on Carbonic anhydrase 7, greater than 100 µM; on Carbonic anhydrase 9, greater than 100 µM.
Consider `CC(C)c1cccc(OC(=O)c2ccc([N+](=O)[O-])cc2)c(=O)c1`, for which the inhibition constant (Ki) was greater than 100 µM on Carbonic anhydrase 1, greater than 100 µM in [5], 9.6 µM at Carbonic anhydrase 7 and 0.37 µM on Carbonic anhydrase 9.
`O=c1cccccc1OCc1ccccc1C(F)(F)F`: the Ki is greater than 100 µM on Carbonic anhydrase 1, 6.63 µM in data set [5], 6.19 µM at Carbonic anhydrase 7 and 4.3 µM at Carbonic anhydrase 9.
For `O=c1cccccc1OCc1ccc([N+](=O)[O-])cc1`, in that order: 6.22 µM, greater than 100 µM, greater than 100 µM and 13.3 µM.
As for `CC(C)c1cccc(=O)c(O)c1` [HINOKITIOL], the inhibition against Carbonic anhydrase 2 [11] was 16%; in the data set listed under Homo sapiens [6], 0%; in the data set filed under Homo sapiens [7] it was 47%. Moreover, the Ki is 4.98 µM at Carbonic anhydrase 1; 90.6 µM at Carbonic anhydrase 2 [10]; 7.5 µM in data set [5]; greater than 100 µM on Carbonic anhydrase 7; 23.9 µM at Carbonic anhydrase 9; greater than 100 µM on Carbonic anhydrase 12.
Turning to `O=c1cccccc1S`, the Ki at Carbonic anhydrase 2 [8] came to 96 µM; in data set [9] it was 61 µM.
As for `O=c1cccccc1OCCCCl`, the Ki at Carbonic anhydrase 1 was greater than 100 µM; on Carbonic anhydrase 7 it was 5.2 µM; on Carbonic anhydrase 9, 8.94 µM.
As for `O=C(O)COc1cccccc1=O`, the figures for the Ki (in data set [5]; at Carbonic anhydrase 9) were 8.11 µM and 25.6 µM, respectively.
